Patent US20060148766A1 (priority 2002, published 2006)

Tested on: living body
Experiment: Toxicity test
Details: in vivo

With CN(C)c1ccc(O)c2c1C[C@H]1C[C@H]3[C@H](N(C)C)C(O)=C(C(N)=O)C(=O)[C@@]3(O)C(O)=C1C2=O [minocycline] the “side effects on the living body” value was “no particular side effects”.
